Tests used:
Type in all cases: toxicity, cell-based, Cricetulus griseus, CHO
[1] = biological target: Voltage-gated inwardly rectifying potassium channel KCNH2 (Homo sapiens, UniProt Q12809); experiment: (§1) Compounds were solubilised to 10 mM in DMSO and diluted in HBPS to […]. 6-Point concentration-response curves were generated using serial dilutions from the top test concentration. Electrophysiological recordings are made from a Chinese Hamster Ovary cell line stably expressing the full-length ion channel. Single cell ionic currents are measured in whole-cell configuration at room temperature. The internal solution for hERG is buffered to pH 7.3, and the external solution is buffered to pH 7.4. The test pulse was applied according to voltage protocol. Compounds were incubated for 2 min to allow stabilization of the parameters. Concentration-response curves were generated by cumulative addition of compound with concentrations low to high. In all cases, steady-state inhibition was achieved before the next concentration of compound was added. IC50 values or % of inhibition at top test concentration is obtained. The assay has been performed by Concept Life Sciences Ltd.
hERG (KCNH2) = hERG (KCNH2) (Homo sapiens, UniProt Q12809); experiment: as §1; settings: chinese hamster, CHO cells stably expressing full-length hERG, pH 7.3; top test concentration 30 uM
[2] = biological target: NaV1.5 (sodium channel protein type 5 subunit alpha) (Homo sapiens, UniProt Q14524); experiment: (§2) Compounds were solubilised to 10 mM in DMSO and diluted in HBPS to 30 mM. 6-Point concentration-response curves were generated using serial dilutions from the top test concentration. Electrophysiological recordings were made from a Chinese Hamster Ovary cell line stably expressing the full-length ion channel. Single cell ionic currents were measured in whole-cell configuration at room temperature. The internal solution for hNaV1.5 is buffered to pH 7.3, and the external solution is buffered to pH 7.4. The test pulse was applied according to voltage protocol. Compounds were incubated for 2 min to allow stabilization of the parameters. Concentration-response curves were generated by cumulative addition of compound with concentrations low to high. In all cases, steady-state inhibition was achieved before the next concentration of compound was added. To investigate any use-dependence, an 8-pulse voltage protocol is applied at a frequency of 3 Hz. Inhibition is compared at pulse 1 and pulse 8. Any difference in the potency of a compound at P8 versus P1 would be typical of use-dependent block. IC50 values or % inhibition at the top test concentration is obtained. The assay has been performed by Concept Life Sciences Ltd.; settings: chinese hamster, CHO cells stably expressing full-length hNaV1.5, pH 7.3; top test concentration 30 uM
[3] = biological target: Sodium channel protein type 5 subunit alpha (Homo sapiens, UniProt Q14524); experiment: as §2; settings: for Inhibition: chinese hamster, cho, pH 7.3, 2 min, 2 min, top test concentration 30 uM
Sequence of Sodium channel protein type 5 subunit alpha (Q14524 whole entry): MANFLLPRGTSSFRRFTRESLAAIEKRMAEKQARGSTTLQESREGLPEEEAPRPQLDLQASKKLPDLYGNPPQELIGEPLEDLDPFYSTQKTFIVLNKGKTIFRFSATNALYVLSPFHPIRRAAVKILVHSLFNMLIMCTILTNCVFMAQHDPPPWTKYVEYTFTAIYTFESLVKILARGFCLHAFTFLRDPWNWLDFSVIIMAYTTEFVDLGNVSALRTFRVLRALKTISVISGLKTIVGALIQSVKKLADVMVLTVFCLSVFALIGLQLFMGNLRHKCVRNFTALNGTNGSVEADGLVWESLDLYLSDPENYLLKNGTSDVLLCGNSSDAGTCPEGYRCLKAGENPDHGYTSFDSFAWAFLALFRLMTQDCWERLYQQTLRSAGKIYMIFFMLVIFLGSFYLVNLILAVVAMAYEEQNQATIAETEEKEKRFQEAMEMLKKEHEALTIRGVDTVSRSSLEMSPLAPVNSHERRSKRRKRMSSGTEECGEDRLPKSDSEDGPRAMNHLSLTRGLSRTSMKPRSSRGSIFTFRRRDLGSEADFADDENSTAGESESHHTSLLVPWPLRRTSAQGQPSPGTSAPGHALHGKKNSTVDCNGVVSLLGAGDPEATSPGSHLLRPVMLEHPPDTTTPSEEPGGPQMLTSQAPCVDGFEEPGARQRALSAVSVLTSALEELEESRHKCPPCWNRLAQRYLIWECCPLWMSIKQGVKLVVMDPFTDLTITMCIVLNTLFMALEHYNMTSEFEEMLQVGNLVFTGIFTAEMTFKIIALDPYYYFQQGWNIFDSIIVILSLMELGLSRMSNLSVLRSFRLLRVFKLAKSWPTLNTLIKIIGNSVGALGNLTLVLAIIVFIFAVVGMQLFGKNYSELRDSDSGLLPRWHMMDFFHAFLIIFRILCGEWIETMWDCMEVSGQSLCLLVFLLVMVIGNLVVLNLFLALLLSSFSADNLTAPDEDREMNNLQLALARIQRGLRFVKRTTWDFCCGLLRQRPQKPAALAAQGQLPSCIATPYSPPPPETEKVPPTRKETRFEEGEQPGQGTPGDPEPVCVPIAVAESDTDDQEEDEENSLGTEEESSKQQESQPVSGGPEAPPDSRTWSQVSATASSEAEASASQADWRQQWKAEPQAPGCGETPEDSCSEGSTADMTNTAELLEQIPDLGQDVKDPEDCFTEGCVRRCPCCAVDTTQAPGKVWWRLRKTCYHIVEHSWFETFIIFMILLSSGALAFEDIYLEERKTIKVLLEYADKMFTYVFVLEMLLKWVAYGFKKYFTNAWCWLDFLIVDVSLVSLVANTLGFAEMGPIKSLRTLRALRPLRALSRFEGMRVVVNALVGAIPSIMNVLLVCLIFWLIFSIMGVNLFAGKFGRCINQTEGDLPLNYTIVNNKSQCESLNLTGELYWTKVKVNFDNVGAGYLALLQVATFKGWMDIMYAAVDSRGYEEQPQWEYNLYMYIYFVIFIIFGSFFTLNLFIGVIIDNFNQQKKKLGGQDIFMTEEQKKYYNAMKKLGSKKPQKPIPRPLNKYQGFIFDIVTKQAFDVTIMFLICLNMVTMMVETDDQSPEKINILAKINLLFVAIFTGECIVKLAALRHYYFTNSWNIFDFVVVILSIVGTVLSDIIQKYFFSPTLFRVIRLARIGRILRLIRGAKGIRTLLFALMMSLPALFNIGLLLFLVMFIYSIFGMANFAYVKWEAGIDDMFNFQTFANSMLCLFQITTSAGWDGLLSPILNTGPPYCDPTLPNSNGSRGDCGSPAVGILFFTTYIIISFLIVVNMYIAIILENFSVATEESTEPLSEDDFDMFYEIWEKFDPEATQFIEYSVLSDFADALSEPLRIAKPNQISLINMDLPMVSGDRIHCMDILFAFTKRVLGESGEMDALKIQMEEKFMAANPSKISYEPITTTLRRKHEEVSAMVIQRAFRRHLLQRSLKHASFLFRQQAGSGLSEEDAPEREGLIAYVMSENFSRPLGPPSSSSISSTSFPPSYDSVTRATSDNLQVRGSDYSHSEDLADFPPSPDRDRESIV

Sequence of hERG (KCNH2) (Q12809 whole entry): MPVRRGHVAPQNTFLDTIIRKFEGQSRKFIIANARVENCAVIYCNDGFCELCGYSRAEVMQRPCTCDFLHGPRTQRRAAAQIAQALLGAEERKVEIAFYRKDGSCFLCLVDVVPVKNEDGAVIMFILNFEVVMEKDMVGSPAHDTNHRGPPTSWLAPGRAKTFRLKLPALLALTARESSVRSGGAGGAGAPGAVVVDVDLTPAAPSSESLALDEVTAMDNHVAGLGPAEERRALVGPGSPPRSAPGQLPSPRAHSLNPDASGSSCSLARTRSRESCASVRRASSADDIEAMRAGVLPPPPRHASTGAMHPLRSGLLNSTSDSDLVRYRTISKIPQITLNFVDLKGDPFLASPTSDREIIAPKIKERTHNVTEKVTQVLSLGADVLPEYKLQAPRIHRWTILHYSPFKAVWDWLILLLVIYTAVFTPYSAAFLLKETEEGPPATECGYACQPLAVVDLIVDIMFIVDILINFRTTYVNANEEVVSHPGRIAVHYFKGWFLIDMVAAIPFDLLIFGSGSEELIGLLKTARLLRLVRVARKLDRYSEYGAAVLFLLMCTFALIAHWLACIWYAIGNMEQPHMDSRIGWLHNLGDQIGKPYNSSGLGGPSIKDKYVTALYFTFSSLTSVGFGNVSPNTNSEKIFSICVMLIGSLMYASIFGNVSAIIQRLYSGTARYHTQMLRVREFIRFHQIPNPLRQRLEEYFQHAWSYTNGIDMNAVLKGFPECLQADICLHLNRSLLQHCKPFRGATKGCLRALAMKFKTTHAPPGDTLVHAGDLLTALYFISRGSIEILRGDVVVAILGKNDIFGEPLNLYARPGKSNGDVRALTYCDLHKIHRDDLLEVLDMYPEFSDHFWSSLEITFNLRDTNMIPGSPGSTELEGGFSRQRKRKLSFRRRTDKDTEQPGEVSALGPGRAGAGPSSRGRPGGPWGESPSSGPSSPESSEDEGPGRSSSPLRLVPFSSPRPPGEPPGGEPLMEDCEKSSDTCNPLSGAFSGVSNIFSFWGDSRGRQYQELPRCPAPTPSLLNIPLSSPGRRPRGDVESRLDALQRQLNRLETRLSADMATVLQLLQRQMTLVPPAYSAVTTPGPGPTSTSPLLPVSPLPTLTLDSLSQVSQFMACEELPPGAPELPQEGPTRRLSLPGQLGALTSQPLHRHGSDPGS
Sequence of Voltage-gated inwardly rectifying potassium channel KCNH2 (Q12809 whole entry): as above

Structure (SMILES)	IC50 [1] [µM]	inhibition at 2 min (hERG (KCNH2)) [%]	inhibition at 2 min [2] [%]	IC50 [3] [µM]	Inhibition [3] [%]	Inhibition ([1]; chinese hamster, cho, pH 7.3, 2 min, 2 min, top test concentration 30 uM) [%]
CC(C)[C@H](Nc1ncnc2[nH]ccc12)c1ccc2c(c1)S(=O)(=O)CCC2	> 30	39	19	> 30	29	–
CC(C)[C@H](Nc1ncnc2[nH]c(-c3cnn(C)c3C#N)cc12)c1ccc2c(n1)OCCO2	11	–	33	> 30	35	–
COc1ccc([C@H](Cc2nnn[nH]2)NC(=O)c2ncnc3[nH]ccc23)cc1	> 30	27	9	> 30	8	–
CC(C)[C@@H](Nc1ncnc2[nH]c(C(=O)N[C@@H]3CCN(C)C3)cc12)c1ccc2c(c1)S(=O)(=O)CCC2	> 30	–	11	> 30	–	18
CNCc1cc(-c2cc3c(N[C@@H](c4ccc5c(c4)S(=O)(=O)CCC5)C(C)C)ncnc3[nH]2)co1	> 30	26	10	> 30	16	–
CC(C)[C@@H](Nc1ncnc2[nH]c(-c3cnn(C)c3C#N)cc12)c1ccc2c(n1)OCCO2	10.1	–	27	> 30	25	–
CNC(=O)Cn1cc(-c2cc3c(N[C@@H](c4ccc5c(c4)S(=O)(=O)CCC5)C(C)C)ncnc3[nH]2)cn1	> 30	23	15	> 30	26	–
Cn1ncc(-c2cc3c(N[C@@H](c4ccc5c(n4)OCCO5)C(C)(C)C)ncnc3[nH]2)c1C#N	19.5	–	17	> 30	21	–
C[C@H](C(=O)O)[C@@H](NC(=O)c1ncnc2[nH]ccc12)c1ccc(Br)cc1	> 30	28	18	> 30	16	–

From ChEMBL document CHEMBL5441442, “ASAP - In vitro cardiotoxicity” (2024)
